From paper PMC10819888, “Benzimidazole-Based Derivatives as Apoptotic Antiproliferative Agents: Design, Synthesis, Docking, and Mechanistic Studies” (Molecules, 2024)

Tests used:
Experiment in all cases: NCI-60 one-dose assay
Type in all cases: cell-based
A549/ATCC = conditions: Homo sapiens, A549/ATCC (Non-Small Cell Lung Cancer), read-out: Cell Inhibition Percent
OVCAR-5 = conditions: Homo sapiens, OVCAR-5 (ovarian cancer), read-out: Cell Inhibition Percent
LOX IMVI = conditions: Homo sapiens, LOX IMVI (Melanoma), read-out: Cell Inhibition Percent
T-47D = conditions: Homo sapiens, T47D, T-47D (Breast Cancer), read-out: Cell Inhibition Percent
EKVX = conditions: Homo sapiens, EKVX (Non-Small Cell Lung Cancer), read-out: Cell Inhibition Percent
NCI-H322M = conditions: Homo sapiens, NCI-H322M (Non-Small Cell Lung Cancer), read-out: Cell Inhibition Percent
COLO 205 = conditions: Homo sapiens, COLO 205 (Colon Cancer), read-out: Cell Inhibition Percent
MCF7 = conditions: Homo sapiens, MCF7 (Breast Cancer), read-out: Cell Inhibition Percent
A498 = conditions: Homo sapiens, A498 (Renal Cancer), read-out: Cell Inhibition Percent
HCT-116 = conditions: Homo sapiens, HCT-116 (Colon Cancer), read-out: Cell Inhibition Percent
HCT-15 = conditions: Homo sapiens, HCT-15 (Colon Cancer), read-out: Cell Inhibition Percent
NCI-H23 = conditions: Homo sapiens, NCI-H23 (Non-Small Cell Lung Cancer), read-out: Cell Inhibition Percent
M14 = conditions: Homo sapiens, M14 (Melanoma), read-out: Cell Inhibition Percent
OVCAR-8 = conditions: Homo sapiens, OVCAR-8 (ovarian cancer), read-out: Cell Inhibition Percent
SK-MEL-5 = conditions: Homo sapiens, SK-MEL-5 (Melanoma), read-out: Cell Inhibition Percent
SK-MEL-2 = conditions: Homo sapiens, SK-MEL-2 (Melanoma), read-out: Cell Inhibition Percent
MDA-MB-435 = conditions: Homo sapiens, MDA-MB-435 (Melanoma), read-out: Cell Inhibition Percent
RXF 393 = conditions: Homo sapiens, RXF 393 (Renal Cancer), read-out: Cell Inhibition Percent
RPMI-8226 = conditions: Homo sapiens, RPMI-8226 (Leukemia), read-out: Cell Inhibition Percent
MALME-3M = conditions: Homo sapiens, MALME-3M (Melanoma), read-out: Cell Inhibition Percent
IGROV1 = conditions: Homo sapiens, IGROV-1, IGROV1 (ovarian cancer), read-out: Cell Inhibition Percent
HL-60(TB) = conditions: Homo sapiens, HL-60(TB) (Leukemia), read-out: Cell Inhibition Percent
UO-31 = conditions: Homo sapiens, UO-31 (Renal Cancer), read-out: Cell Inhibition Percent
U251 = conditions: Homo sapiens, U-251, U251 (CNS cancer), read-out: Cell Inhibition Percent
SF-295 = conditions: Homo sapiens, SF-295 (CNS cancer), read-out: Cell Inhibition Percent
OVCAR-3 = conditions: Homo sapiens, OVCAR-3 (ovarian cancer), read-out: Cell Inhibition Percent
PC-3 = conditions: Homo sapiens, PC-3 (Prostate Cancer), read-out: Cell Inhibition Percent
SNB-75 = conditions: Homo sapiens, SNB-75 (CNS cancer), read-out: Cell Inhibition Percent
MDA-MB 231 = conditions: Homo sapiens, MDA-MB 231 (Breast Cancer), read-out: Cell Inhibition Percent

Row | Compound | inhibition at 10 µM (A549/ATCC) [%] | inhibition at 10 µM (OVCAR-5) [%] | inhibition at 10 µM (LOX IMVI) [%] | inhibition at 10 µM (T-47D) [%] | inhibition at 10 µM (EKVX) [%] | inhibition at 10 µM (NCI-H322M) [%] | inhibition at 10 µM (COLO 205) [%] | inhibition at 10 µM (MCF7) [%] | inhibition at 10 µM (A498) [%] | inhibition at 10 µM (HCT-116) [%] | inhibition at 10 µM (HCT-15) [%] | inhibition at 10 µM (NCI-H23) [%] | inhibition at 10 µM (M14) [%] | inhibition at 10 µM (OVCAR-8) [%] | inhibition at 10 µM (SK-MEL-5) [%] | inhibition at 10 µM (SK-MEL-2) [%] | inhibition at 10 µM (MDA-MB-435) [%] | inhibition at 10 µM (RXF 393) [%] | inhibition at 10 µM (RPMI-8226) [%] | inhibition at 10 µM (MALME-3M) [%] | also measured
1 | O=C(NN=Cc1ccccc1)c1ccc2[nH]c(-c3ccc(Cl)cc3)nc2c1 [Compound 4a, N′-Benzylidene-2-(4-chlorophenyl)-1H-benzimidazole-5-carbohydrazide] | 0 | 0 | 7.23 | 18.2 | 1.38 | 0 | 0.76 | 23.5 | 22.1 | 0 | 4.81 | 1.85 | 8.89 | 1.37 | 4.85 | 0 | 0 | 15.5 | 13.8 | 1.28 | inhibition at 10 µM (IGROV1): 4.8%; inhibition at 10 µM (HL-60(TB)): 0%; inhibition at 10 µM (UO-31): 8.73%; inhibition at 10 µM (U251): 4.35%; inhibition at 10 µM (SF-295): 13.2%; inhibition at 10 µM (OVCAR-3): 0%; inhibition at 10 µM (PC-3): 0%; inhibition at 10 µM (SNB-75): 10.7%; inhibition at 10 µM (MDA-MB 231): 0%
2 | CN(C)c1ccc(C=NNC(=O)c2ccc3[nH]c(-c4ccc(Cl)cc4)nc3c2)cc1 [Compound 4b, N′-(4-(Dimethylamino)benzylidene)-2-(4-chlorophenyl)-1H-benzimidazole-5-carbohydrazide] | 0 | 0 | 3.7 | 14.1 | 2.85 | 0.24 | 0 | 23.8 | 12.9 | 4.7 | 0 | 1.51 | 3.58 | 5.81 | 5.02 | 0 | 0 | 7.79 | 5.27 | 12.9 | inhibition at 10 µM (IGROV1): 15%; inhibition at 10 µM (HL-60(TB)): 0%; inhibition at 10 µM (UO-31): 13.3%; inhibition at 10 µM (U251): 0%; inhibition at 10 µM (SF-295): 1.06%; inhibition at 10 µM (OVCAR-3): 0%; inhibition at 10 µM (PC-3): 4.81%; inhibition at 10 µM (SNB-75): 0.61%; inhibition at 10 µM (MDA-MB 231): 15.6%
3 | O=C(NN=Cc1ccc(F)cc1)c1ccc2[nH]c(-c3ccc(Cl)cc3)nc2c1 [Compound 4d, N′-(4-Fluorobenzylidene)-2-(4-chlorophenyl)-1H-benzimidazole-5-carbohydrazide] | 82.2 | 10.8 | 66 | 40.6 | 26.8 | 22.4 | 58.7 | 82.6 | 27.1 | 51.4 | 33.2 | 38.6 | 39.8 | 48.7 | 11 | 16.7 | 6.12 | 22.6 | 32.5 | 88.2 | inhibition at 10 µM (IGROV1): 59.8%; inhibition at 10 µM (HL-60(TB)): 62.6%; inhibition at 10 µM (UO-31): 24.6%; inhibition at 10 µM (U251): 98.4%; inhibition at 10 µM (SF-295): 68.7%; inhibition at 10 µM (OVCAR-3): 29.3%; inhibition at 10 µM (PC-3): 53.2%; inhibition at 10 µM (SNB-75): 2.77%; inhibition at 10 µM (MDA-MB 231): 36.1%
4 | CCNC(=S)NNC(=O)c1ccc2[nH]c(-c3ccc(Cl)cc3)nc2c1 [Compound 5] | 6.17 | 3.26 | 12.4 | 18.4 | 18.2 | 3.36 | 0 | 22.1 | 57.7 | 0 | 5.9 | 5.79 | 1.67 | 6.74 | 9.57 | 0 | 0.91 | 7.61 | 95.8 | 1.54 | inhibition at 10 µM (IGROV1): 14.3%; inhibition at 10 µM (HL-60(TB)): 0%; inhibition at 10 µM (UO-31): 6.39%; inhibition at 10 µM (U251): 2.36%; inhibition at 10 µM (OVCAR-3): 0%; inhibition at 10 µM (PC-3): 7.83%; inhibition at 10 µM (SNB-75): 7.77%; inhibition at 10 µM (MDA-MB 231): 20.5%
